Source: article PMC11010885, “Functional Analysis and Tissue-Specific Expression of Calcitonin and CGRP with RAMP-Modulated Receptors CTR and CLR in Chickens” (Animals : an Open Access Journal from MDPI, 2024)

Key:
Type in all cases: cell-based
[1] = tested on: chicken CTR + RAMP2; experiment: MAPK/ERK pGL4-SRE-luciferase reporter assay, CTR + RAMP2 in CHO cells; details: 10^−12 M to 10^−6 M, 6 h, mean ± SEM, n = 3, read-out: EC50, MAPK/ERK signaling pathway
Procedure: (§1) Chinese hamster ovary (CHO) cells were cultured in Dulbecco’s modified Eagle’s medium (DMEM) supplemented with 10% (vol/vol) fetal bovine serum (HyClone, Logan, UT, USA), 100 U/mL penicillin G and 100 μg/mL streptomycin. The cells were maintained in a 90 mm culture dish (Nunc, Rochester, NY, USA) and incubated at 37 °C with 5% CO2. To investigate the signaling pathways associated with each receptor in CHO cells, three different reporter systems (pGL3-CRE-luciferase, pGL4-SRE-luciferase, and pGL3-NFAT-RE-luciferase) were utilized to monitor intracellular cAMP/PKA and MAPK/ERK signaling pathways and calcium mobilization of the activated receptors, respectively.
(§2) Prior to the transfection procedure, the cells were initially cultured in 6-well plates (Nunc, Rochester, NY, USA), maintaining a seeding density of approximately 300,000 cells per well. Upon achieving approximately 70% confluence, the cells underwent a co-transfection process. […] The fluorescence activity of the luciferase in each treatment group was measured using a multimode microplate reader (TriStar LB941, Berthold Technologies, Bad Wildbad, Germany). Finally, the fluorescence activity of each treatment group was expressed as a relative increase ratio compared to the control group.

[2] = tested on: chicken CLR; experiment: Calcium pGL3-NFAT-RE-luciferase reporter assay, CLR + pcDNA in CHO cells; details: 10^−12 M to 10^−6 M, 6 h, mean ± SEM, n = 3, read-out: EC50, calcium signaling pathway
Procedure: as §1, §2

[3] = tested on: chicken CLR + RAMP1; experiment: cAMP/PKA pGL3-CRE-luciferase reporter assay, CLR + RAMP1 in CHO cells
Procedure: as §1
(§3) Prior to the transfection procedure, the cells were initially cultured in 6-well plates (Nunc, Rochester, NY, USA), maintaining a seeding density of approximately 300,000 cells per well. Upon achieving approximately 70% confluence, the cells underwent a co-transfection process. This procedure entailed the introduction of 700 ng of various luciferase reporter constructs (namely, pGL3-CRE-luciferase, pGL4-SRE-luciferase, or pGL3-NFAT-RE-luciferase) combined with 200 ng of a specific receptor plasmid (CTR or CLR) and 1000 ng of either RAMP1, RAMP2, RAMP3 expression plasmids, or alternatively, the empty pcDNA3.1 (+) vector. A volume of 5.7 μL of PEI MAX was used in 200 μL of buffer following the manufacturer’s protocol. After 24 h of incubation, the transfected CHO cells were subcultured in 96-well plates and passaged for an additional 24 h before peptide treatment. Then, the medium from the 96-well plates was removed, and the cells were treated with chicken CT/CGRP-containing medium (or untreated medium as a control) at concentrations ranging from 10^−12 M to 10^−6 M for 6 h. […] The fluorescence activity of the luciferase in each treatment group was measured using a multimode microplate reader (TriStar LB941, Berthold Technologies, Bad Wildbad, Germany). Finally, the fluorescence activity of each treatment group was expressed as a relative increase ratio compared to the control group.

[4] = tested on: chicken CTR + RAMP1; experiment: Calcium pGL3-NFAT-RE-luciferase reporter assay, CTR + RAMP1 in CHO cells; details: 10^−12 M to 10^−6 M, 6 h, mean ± SEM, n = 3, read-out: EC50, calcium signaling pathway
Procedure: as §1, §2

[5] = tested on: chicken CTR; experiment: MAPK/ERK pGL4-SRE-luciferase reporter assay, CTR + pcDNA in CHO cells; details: 10^−12 M to 10^−6 M, 6 h, mean ± SEM, n = 3, read-out: EC50, MAPK/ERK signaling pathway
Procedure: as §1, §2

[6] = tested on: chicken CLR + RAMP2; experiment: cAMP/PKA pGL3-CRE-luciferase reporter assay, CLR + RAMP2 in CHO cells; details: 10^−12 M to 10^−6 M, 6 h, mean ± SEM, n = 3, read-out: EC50, cAMP/PKA signaling pathway
Procedure: as §1, §2

[7] = tested on: chicken CLR + RAMP1; experiment: Western blot CREB phosphorylation, CLR + RAMP1 in CHO cells; details: 10 nM, 10 min, n = 3
Procedure: (§4) To assess whether the activation of chicken CTR and CLR, along with the presence of RAMPs, can augment the phosphorylation levels of cAMP response element-binding protein (CREB), 200 ng of CTR or CLR expression plasmids were combined with 1000 ng of chicken RAMPs or an empty pcDNA3.1 (+) vector in a 100 μL buffer. The resulting mixture was then transfected into CHO cells in a 12-well plate (Nunc, Rochester, NY, USA) using 3.6 μL of PEI MAX transfection reagent. After a 24 h incubation period, the cells were exposed to chicken CT (10 nM) or CGRP (10 nM) for 10 min. Subsequently, the culture medium was removed, and the cells were lysed according to the manufacturer’s instructions. Western blot analysis was performed to quantify the levels of CREB and phosphorylated CREB (p-CREB). The optical densities were analyzed and normalized using the software, ImageJ 1.52a (National Institutes of Health, Bethesda, MD, USA). The relative expression of p-CREB/CREB was determined by calculating the ratio of the optical density to that of the control without peptide treatment (0 min).

[8] = tested on: chicken CLR + RAMP3; experiment: cAMP/PKA pGL3-CRE-luciferase reporter assay, CLR + RAMP3 in CHO cells; details: 10^−12 M to 10^−6 M, 6 h, mean ± SEM, n = 3, read-out: EC50, cAMP/PKA signaling pathway
Procedure: as §1, §2

[9] = tested on: chicken CTR + RAMP3; experiment: MAPK/ERK pGL4-SRE-luciferase reporter assay, CTR + RAMP3 in CHO cells; details: 10^−12 M to 10^−6 M, 6 h, mean ± SEM, n = 3, read-out: EC50, MAPK/ERK signaling pathway
Procedure: as §1, §2

[10] = tested on: chicken CTR in the absence or presence of RAMPs; experiment: cAMP/PKA pGL3-CRE-luciferase reporter assay, CTR without and with RAMPs compared
Procedure: as §1, §3

[11] = tested on: chicken CTR + RAMP2; experiment: cAMP/PKA pGL3-CRE-luciferase reporter assay, CTR + RAMP2 in CHO cells; details: 10^−12 M to 10^−6 M, 6 h, mean ± SEM, n = 3, read-out: EC50, cAMP/PKA signaling pathway
Procedure: as §1, §2

[12] = tested on: chicken CTR + RAMP1; experiment: MAPK/ERK pGL4-SRE-luciferase reporter assay, CTR + RAMP1 in CHO cells; details: 10^−12 M to 10^−6 M, 6 h, mean ± SEM, n = 3, read-out: EC50, MAPK/ERK signaling pathway
Procedure: as §1, §2

[13] = tested on: chicken CTR; experiment: Western blot CREB phosphorylation, CTR in CHO cells; details: 10 nM, 10 min, n = 3
Procedure: as §4

[14] = tested on: chicken CLR; experiment: MAPK/ERK pGL4-SRE-luciferase reporter assay, CLR + pcDNA in CHO cells; details: 10^−12 M to 10^−6 M, 6 h, mean ± SEM, n = 3, read-out: EC50, MAPK/ERK signaling pathway
Procedure: as §1, §2

[15] = tested on: chicken CTR + RAMP2; experiment: Calcium pGL3-NFAT-RE-luciferase reporter assay, CTR + RAMP2 in CHO cells; details: CTR + RAMP2, CHO cells, pGL3-NFAT-RE-luciferase, 10^−12 M to 10^−6 M, 6 h; mean ± SEM, n = 3; read-out: EC50, calcium signaling pathway
Procedure: as §1, §3

Substance: calcitonin gene-related peptide [CGRP]
- EC50 [1]: 10.4 ± 1.12 nM
- EC50 [2]: > 100 nM
- EC50 ([3]; CLR + RAMP1, CHO cells, pGL3-CRE-luciferase, 10^−12 M to 10^−6 M, 6 h, mean ± SEM, n = 3, read-out: EC50, cAMP/PKA signaling pathway): 0.26 ± 0.03 nM
- EC50 of CGRP relative to CT ([3]; CLR in the presence of RAMP1): approximately tenfold lower than CT
- EC50 [4]: > 100 nM
- EC50 [5]: 6.73 ± 1.78 nM
- EC50 [6]: 40.9 ± 6.76 nM
- CREB phosphorylation (p-CREB/CREB vs. control, 0 min) [7]: significantly enhanced the CREB phosphorylation
- EC50 [8]: 1.84 ± 0.73 nM
- EC50 [9]: 0.67 ± 0.24 nM
- effect of RAMP co-expression on sensitivity of CTR ([10]; CHO cells, pGL3-CRE-luciferase): co-expression of RAMP1 or RAMP3 significantly increased the sensitivity of CTR to CGRP
- rank order of receptor sensitivity ([10]; CTR without/with RAMPs): CTR + RAMP1 ≈ CTR + RAMP3 > CTR + RAMP2 ≈ CTR
- EC50 [11]: 1.63 ± 0.19 nM
- EC50 [12]: 0.41 ± 0.08 nM
- CREB phosphorylation (p-CREB/CREB vs. control, 0 min) [13]: significantly increased the CREB phosphorylation
- EC50 [14]: > 100 nM
- EC50 [15]: > 100 nM
